Experimental findings from patent US20220354894A1, “Cell Composition Comprising Radiolabled Mesenchymal Stem Cells, Use Thereof and Method for Preparing Radiolabeled Mesenchymal Stem Cells” (Boehringer Ingelheim Veterinary Medicine Belgium, priority 2019, published 2022) are described below.

The nature of the data set: Planar scintigraphy biodistribution after IV injection in healthy horses (Example 6). Format: in vivo. The note with it: horse. From the text:
Four healthy adult horses (2 neutered male and 2 female horses, 7 to 19 years old) from two different breeds (2 Belgian warmblood and 2 French Trotter) were included in this study. All animals underwent a full veterinary examination before being included in the study and were stalled at least 2 days prior to the start of the study. During the study, the animals were housed in individual stables of 3.5 by 4 (L×W) according to normal housing procedures with water ad libitum and hay twice a day. During the study, a daily general clinical examination was performed (day 0-3). All horses received a total of two IV injections; the first consisted of free ^99mTc dissolved in DMEM which served as control. The second injection was administered three days later and consisted of ^99mTc-labelled ePB-MSC.
For the IV injections of the horses, a 18 G catheter was placed in the left jugular vein of each horse and sedation was achieved using detomidine hydrochloride (Domidine 10 mg/mL; Dechra, The Netherlands) 0.01 mg/kg body weight and butorphanol tartrate (butomidor 10 mg/mL; AST farma BV, Oudewater, Germany) 0.01 mg/kg body weight IV When required, detomidine hydrochloride (Domidine 10 mg/mL; Dechra) was added during the scan with a maximum of 0.002 mg/kg. The horses stood straight with all four limbs using a table to stabilize the head. On day 0, all four horses were IV injected with free ^99mTc dissolved in DMEM. Consequently, on day 3, all horses were IV injected with ^99mTc-labelled ePB-MSCs dissolved in DMEM as described above. Planar scintigraphy was performed 1 h and 6 h post-injection for both injections using a gamma camera (Equine HR, Medical Imaging Electronics) (matrix: 128×128; acquisition time: 60 seconds per time frame (60 frames); collimator: low energy high resolution (140 KeV, 15% symmetrical window); field of view: 600×410 mm). Following body parts were scanned: head, thorax and abdomen starting with the head, left thorax and left abdomen and continuing with the right abdomen and right thorax.
Distribution of the ^99mTc labelled ePB-MSCs and free ^99mTc was subjectively assessed through the whole body using Multimodality software (Nuclear diagnostics, Sweden). Different organs of interests were manually delineated for each horse at each time point: the lungs, bladder, stomach, kidney, parotid gland and thyroid. Radioactive counts per pixel were calculated for each organ of interest, decay corrected and divided by the initial injected radioactivity in the whole body to obtain a relative uptake value.

As to `[O]=[99Tc](=[O])(=[O])[O-]` [control product, ^99mTc Pertechnetate], the “radioactivity in the intestines” value is “small activity”. Moreover, where the note is “1 h and 6 h post-injection”, the “accumulation in the kidneys” value is “no kidney accumulation”, the “accumulation in the stomach” value is given as “High accumulation”, the “radioactivity in the bladder” value was “accumulation was higher” and the “uptake in the lungs” value was “distinct radioactive uptake”. For the same compound, for the setting “1 h and 6 h post-injection”, the “uptake in the parotid glands” value is “high uptake” and the “uptake in the thyroid gland” value was “very high accumulation”. Also, the “organs in which accumulation was predominantly observed” value (1 h post-injection scans) was “stomach, thyroid, bladder and parotid glands”.
